Experimental data reported in ChEMBL document CHEMBL6092194, “Development of membrane-targeting chalcone derivatives as antibacterial agents against multidrug-resistant bacteria” (Eur J Med Chem, 2024).
Calls of active or inactive are those of the source. The calls are words filed in the database; no cut-off is given here.

Legend:
[1] = system: Escherichia coli; assay: Antibacterial activity against Escherichia coli ATCC25922 infected in sepsis mouse model assessed as reduction in spleen damage at 5 to 10 mg/kg pre-infected with bacteria for 1 hrs followed by compound administration at 12 hrs interval for 2 days by H and E staining based analysis; type: functional, organism-based; conditions: dose 5-10 mg/kg, time 2.0 day
[2] = system: Cell membrane; assay: Disruption of cell membrane in Staphylococcus aureus ATCC43300 assessed as appearance of blue fluorescence by DAPI staining based fluorescence microscopic analysis
[3] = system: Escherichia coli; assay: Antibacterial activity against Escherichia coli ATCC25922 infected in sepsis mouse model assessed as log reduction in bacterial load in spleen at 5 mg/kg pre-infected with bacteria for 1 hrs followed by compound administration at 12 hrs interval for 2 days relative to control; type: functional; conditions: time 2 day
[4] = system: Staphylococcus aureus; assay: Selectivity ratio of MBC for Staphylococcus aureus ATCC43300 in presence of 50% blood to MBC for Staphylococcus aureus ATCC43300 in Mueller Hinton Broth; type: functional
[5] = system: Staphylococcus aureus; assay: Induction of morphological changes in Staphylococcus aureus ATCC43300 assessed as disruption of cell membrane by scanning electron microscopic analysis; type: functional, organism-based
[6] = system: Escherichia coli; assay: Antibiofilm activity against Escherichia coli ATCC25922 assessed as inhibition of biofilm formation; type: functional, organism-based
[7] = system: Staphylococcus aureus; assay: Antibacterial activity against Staphylococcus aureus ATCC43300 infected in sepsis mouse model assessed as reduction in inflammatory cell infiltration in liver at 10 mg/kg pre-infected with bacteria for 1 hrs followed by compound administration at 12 hrs interval for 2 days by H and E staining based analysis; type: functional, organism-based; conditions: time 2.0 day
[8] = system: Cell membrane; assay: Induction of cytoplasmic membrane depolarization in Staphylococcus aureus ATCC43300 assessed as fold increase in fluorescence intensity at 4 microg/ml measured after 24 mins by DiSC3(5) dye-based fluorescence assay relative to negative control; conditions: dose 4.0 µg/ml
[9] = system: Staphylococcus aureus; assay: Antibacterial activity against Staphylococcus aureus ATCC43300 infected in sepsis mouse model assessed as reduction in kidney inflammation at 5 to 10 mg/kg pre-infected with bacteria for 1 hrs followed by compound administration at 12 hrs interval for 2 days by H and E staining based analysis; type: functional, organism-based; conditions: dose 5-10 mg/kg, time 2.0 day
[10] = system: Escherichia coli; assay: Antibacterial activity against Escherichia coli ATCC25922 infected in sepsis mouse model assessed as reduction in inflammatory cell infiltration in spleen at 10 mg/kg pre-infected with bacteria for 1 hrs followed by compound administration at 12 hrs interval for 2 days by H and E staining based analysis; type: functional, organism-based; conditions: time 2.0 day
[11] = system: Escherichia coli; assay: Antibacterial activity against Escherichia coli ATCC25922 infected in sepsis mouse model assessed as log reduction in bacterial load in kidney at 5 mg/kg pre-infected with bacteria for 1 hrs followed by compound administration at 12 hrs interval for 2 days relative to control; type: functional; conditions: time 2 day
[12] = Cytotoxicity against human L02 cells assessed as cell viability at 8 microg/ml by CCK8 assay relative to control; type: toxicity, cell-based; conditions: at 8 µg/mL, read-out: Activity
[13] = system: Cell membrane; assay: Disruption of cell membrane in Escherichia coli ATCC25922 assessed as increase in protein leakage; type: subcellular; conditions: dose 1-8 µg/ml
[14] = system: Cell membrane; assay: Disruption of cell membrane in Escherichia coli ATCC25922 assessed as appearance of red fluorescence by PI staining based fluorescence microscopic analysis; type: subcellular
[15] = Toxicity in ip dosed BALB/c mouse assessed as maximum tolerated dose measured after 7 days; type: organism-based; conditions: in vivo, time 7 day
[16] = system: Cell membrane; assay: Disruption of cell membrane in Escherichia coli ATCC25922 assessed as increase in DNA leakage; conditions: dose 1-8 µg/ml
[17] = system: Staphylococcus aureus; assay: Bactericidal activity against Staphylococcus aureus ATCC43300 assessed as elimination of bacteria at 8 microg/ml measured within 6 hrs by time-kill kinetics assay relative to control; type: functional; conditions: dose 8 µg/ml
[18] = system: Staphylococcus aureus; assay: Selectivity ratio of MBC for Staphylococcus aureus ATCC43300 in presence of 50% serum to MBC for Staphylococcus aureus ATCC43300 in Mueller Hinton Broth; type: functional
[19] = system: Escherichia coli; assay: Bactericidal activity against Escherichia coli ATCC25922 assessed as bacterial killing at 8 times of MIC measured after 8 hrs by time-kill kinetics assay relative to control; type: functional
[20] = system: Staphylococcus aureus; assay: Antibacterial activity against Staphylococcus aureus ATCC43300 infected in sepsis mouse model assessed as reduction in spleen damage at 5 to 10 mg/kg pre-infected with bacteria for 1 hrs followed by compound administration at 12 hrs interval for 2 days by H and E staining based analysis; type: functional, organism-based; conditions: dose 5-10 mg/kg, time 2.0 day
[21] = system: Staphylococcus aureus; assay: Disruption of preformed biofilm in Staphylococcus aureus ATCC43300 assessed as eradication of biofilm at 8 microg/ml relative to control; type: functional; conditions: dose 8 µg/ml
[22] = system: Escherichia coli; assay: Antibiofilm activity against Escherichia coli ATCC25922 assessed as inhibition of biofilm formation at 16 microg/ml relative to control; type: functional
[23] = system: Staphylococcus aureus; assay: Antibiofilm activity against Staphylococcus aureus ATCC43300 assessed as inhibition of biofilm formation; type: functional, organism-based
[24] = system: Staphylococcus aureus; assay: Antibacterial activity against Staphylococcus aureus ATCC43300 infected in sepsis mouse model assessed as reduction in inflammatory cell infiltration in spleen at 10 mg/kg pre-infected with bacteria for 1 hrs followed by compound administration at 12 hrs interval for 2 days by H and E staining based analysis; type: functional, organism-based; conditions: time 2.0 day
[25] = system: Escherichia coli; assay: Antibacterial activity against Escherichia coli ATCC25922 infected in sepsis mouse model assessed as log reduction in bacterial load in blood at 5 mg/kg pre-infected with bacteria for 1 hrs followed by compound administration at 12 hrs interval for 2 days relative to control; type: functional; conditions: time 2 day
[26] = system: Staphylococcus aureus; assay: Bactericidal activity against Staphylococcus aureus ATCC43300 measured upto 24 hrs by time-kill kinetics assay; type: functional, organism-based; conditions: dose 1-8 µg/ml
[27] = system: Staphylococcus aureus; assay: Antibacterial activity against Staphylococcus aureus ATCC43300 infected in sepsis mouse model assessed as reduction in liver inflammation at 5 to 10 mg/kg pre-infected with bacteria for 1 hrs followed by compound administration at 12 hrs interval for 2 days by H and E staining based analysis; type: functional, organism-based; conditions: dose 5-10 mg/kg, time 2.0 day
[28] = system: Cell membrane; assay: Disruption of cell membrane in Escherichia coli ATCC25922 assessed as increase in intracellular ROS level by measuring fold increase in fluorescence intensity at 8 microg/ml by DCFH-DA staining based fluorescence analysis relative to blank control group; conditions: dose 8.0 µg/ml
[29] = system: Cell membrane; assay: Induction of outer membrane permeabilization in Escherichia coli ATCC25922 assessed as fold increase in fluorescence intensity at 8 microg/ml incubated for 20 mins by NPN uptake assay; type: subcellular; conditions: dose 8.0 µg/ml
[30] = system: Staphylococcus aureus; assay: Bactericidal activity against Staphylococcus aureus ATCC43300 in presence of 50% serum; type: functional
[31] = system: Staphylococcus aureus; assay: Antibacterial activity against Staphylococcus aureus ATCC43300 infected in sepsis mouse model assessed as log reduction in bacterial load in kidney at 5 mg/kg pre-infected with bacteria for 1 hrs followed by compound administration at 12 hrs interval for 2 days relative to control; type: functional; conditions: time 2 day
[32] = system: Staphylococcus aureus; assay: Antibacterial activity against Staphylococcus aureus ATCC43300 infected in sepsis mouse model assessed as reduction in spleen inflammation at 5 to 10 mg/kg pre-infected with bacteria for 1 hrs followed by compound administration at 12 hrs interval for 2 days by H and E staining based analysis; type: functional, organism-based; conditions: dose 5-10 mg/kg, time 2.0 day
[33] = system: Staphylococcus aureus; assay: Bactericidal activity against Staphylococcus aureus ATCC43300 in presence of 50% plasma; type: functional
[34] = Cytotoxicity against human L02 cells assessed as cell survival at 16 microg/ml by CCK8 assay relative to control; type: toxicity, cell-based; conditions: at 16 µg/mL, read-out: Survival

In the case of CCCCCCOc1cc[n+](CCCOc2ccc(/C=C/C(=O)c3ccc(OCCC[n+]4ccc(OCCCCCC)cc4)cc3)cc2)cc1.[Br-].[Br-], the Activity [1] is reported as “Active”, the Activity [2] is reported as “Active” and the “log(activity)” value [3] is reported as 1.92. For the same molecule, the Ratio [4] was less than 2, the Activity [5] was “Active” and the Activity [6] was “Dose-dependent-effect”. For the same molecule, the Activity [7] was “inactive”, the fold change (FC) [8] was 5.8 and the Activity [9] was “Active”. The Activity [10] was “inactive”, the “log(activity)” value [11] was 1.65 and the viability at 8 microg/ml [12] was 93.9%. The Activity [13] was “Dose-dependent-effect”, the Activity [14] was “Active” and the MTD at 168 h [15] was 50 mg/kg. For the same molecule, the Activity [16] was “Dose-dependent-effect”, the Activity [17] was 100% and the Ratio [18] was less than 2. For the same molecule, the Activity [19] was 100%, the Activity [20] was “Active” and the Activity [21] was 20.8%. The inhibition at 16 µg/mL [22] was 50.9%, the Activity [23] was “Dose-dependent-effect” and the Activity [24] was “inactive”. For the same molecule, the “log(activity)” value [25] was 0.71, the Activity [26] was “Dose-dependent-effect” and the Activity [27] was “Active”. For the same molecule, the fold change (FC) [28] was 1.5, the fold change (FC) [29] was 2.5 and the MBC [30] was 16 µg/mL. The “log(activity)” value [31] was 0.86, the Activity [32] was “Active” and the MBC [33] was 4 µg/mL. The viability at 16 microg/ml [34] was greater than 83%.
